Results taken from patent publication US20110082130A1 (LIGAND PHARMACEUTICALS, INC., priority 2006, published 2011).

Target: T1, chimeric human H3 receptor (Homo sapiens, UniProt Q9Y5N1)
T1 construct: made in house; host or cells: Sf9 insect cells (baculovirus); P2 membrane preparation
Assay: Chimeric human H3 receptor GTP binding assay (agonist-stimulated GTP-gamma35S binding, Example 7)
Assay type: biochemical
How it was run: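 Sf9 membranes co-expressing chimeric human H3 receptor and heterotrimeric G-protein, 35 μg/tube, in pH 7.4 Tris buffer with 10 μM GDP. Test compounds (10^−10–10^−6 M) competed against 1 μM histamine, […] GTP-gamma35S, 60 min at room temperature. Filter-bound radioactivity counted; IC50 converted to Ki by Cheng-Prusoff. Agonism/inverse agonism tested without histamine (EC50).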

[1] = Table II, "*" = Ki in assay of Example 7 less than 1 micromolar
[2] = assay of Example 7, "*" in Ki of Table II
[3] = Table II "Ki", symbol *, assay of Example 7

T1 sequence (Q9Y5N1 with tags, fused parts or gaps): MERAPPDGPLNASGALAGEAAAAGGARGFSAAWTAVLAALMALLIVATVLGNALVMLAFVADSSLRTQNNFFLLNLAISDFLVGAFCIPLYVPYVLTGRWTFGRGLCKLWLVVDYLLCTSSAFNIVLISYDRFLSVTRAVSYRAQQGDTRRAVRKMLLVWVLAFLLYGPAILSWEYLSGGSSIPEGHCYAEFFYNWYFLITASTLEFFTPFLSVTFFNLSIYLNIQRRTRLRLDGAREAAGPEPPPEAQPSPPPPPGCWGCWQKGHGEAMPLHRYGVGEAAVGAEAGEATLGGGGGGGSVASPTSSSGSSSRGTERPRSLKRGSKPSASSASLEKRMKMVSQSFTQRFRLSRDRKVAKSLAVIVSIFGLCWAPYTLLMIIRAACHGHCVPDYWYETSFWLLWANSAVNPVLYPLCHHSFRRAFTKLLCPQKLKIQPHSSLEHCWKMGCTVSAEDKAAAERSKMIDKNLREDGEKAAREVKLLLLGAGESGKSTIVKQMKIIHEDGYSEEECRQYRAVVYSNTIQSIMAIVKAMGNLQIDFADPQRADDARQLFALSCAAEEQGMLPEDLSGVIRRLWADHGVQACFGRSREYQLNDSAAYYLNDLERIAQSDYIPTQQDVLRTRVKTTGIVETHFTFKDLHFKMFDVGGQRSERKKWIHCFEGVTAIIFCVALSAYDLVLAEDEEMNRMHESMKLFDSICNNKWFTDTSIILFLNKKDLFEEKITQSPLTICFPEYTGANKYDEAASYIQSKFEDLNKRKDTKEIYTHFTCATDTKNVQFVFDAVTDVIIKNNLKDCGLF

Ki [1] [nM]	SMILES	other results
< 1000	CC1CN(C(=O)CN2CCc3nc(-c4nccs4)sc3C2)CCN1C1CCC1 (stereo not shown) [Compound 115, 5-[2-(4-cyclobutyl-3-methylpiperazin-1-yl)-2-oxoethyl]-2-(1,3-thiazol-2-yl)-4,5,6,7-tetrahydro[1,3]thiazolo [5,4-c]pyridine]	–
< 1000	O=C(CN1CCc2nc(-c3cccnc3)ncc2C1)N1CCN(C2CCC2)CC1 [Compound 143, 6-[2-(4-cyclobutylpiperazin-1-yl)-2-oxoethyl]-2-pyridin-3-yl-5,6,7,8-tetrahydropyrido[4,3-d]pyrimidine]	–
–	COc1cccc(-c2nc3c(s2)CN(CC(=O)N2CCN(C4CCC4)CC2)CC3)c1 [Compound 315, 5-[2-(4-cyclobutylpiperazin-1-yl)-2-oxoethyl]-2-(3-methoxyphenyl)-4,5,6,7-tetrahydro[1,3]thiazolo [5,4-c]pyridine]	Ki [2]: < 1000 nM
–	CC(C)CCNc1ccc2c(n1)CCN(CC(=O)N1CCN(C3CCC3)CC1)C2 [Compound 652, 6-[2-(4-cyclobutylpiperazin-1-yl)-2-oxoethyl]-N-(3-methylbutyl)-5,6,7,8-tetrahydro-1,6-naphthyridin-2-amine]	Ki [3]: < 1000 nM
–	N#Cc1ccc(-c2nc3c(s2)CN(CC(=O)N2CCN(C4CCC4)CC2)CC3)cc1 [Compound 368, 4-{5-[2-(4-cyclobutylpiperazin-1-yl)-2-oxoethyl]-4,5,6,7-tetrahydro[1,3]thiazolo [5,4-c]pyridin-2-yl}benzonitrile]	Ki [2]: < 1000 nM
< 1000	N#Cc1ccc(-n2ncc3c2CCN(CC(=O)N2CCN(C4CCC4)CC2)C3)cc1 [Compound 93, 4-{5-[2-(4-cyclobutylpiperazin-1-yl)-2-oxoethyl]-4,5,6,7-tetrahydro-1H-pyrazolo[4,3-c]pyridin-1-yl}benzonitrile]	–
–	COc1ccc2cc(-c3nc4c(s3)CN(CC(=O)N3CCN(C5CCC5)CC3)CC4)ccc2c1 [Compound 324, 5-[2-(4-cyclobutylpiperazin-1-yl)-2-oxoethyl]-2-(6-methoxy-2-naphthyl)-4,5,6,7-tetrahydro[1,3]thiazolo [5,4-c]pyridine]	Ki [2]: < 1000 nM
< 1000	O=C(CN1CCc2nc(N3CCC(F)C3)ccc2C1)N1CCN(C2CCC2)CC1 (stereo not shown) [Compound 225, 6-[2-(4-cyclobutylpiperazin-1-yl)-2-oxoethyl]-2-(3-fluoropyrrolidin-1-yl)-5,6,7,8-tetrahydro-1,6-naphthyridine]	–
–	COc1cc(-c2ccc3c(c2)CCN(CC(=O)N2CCN(C4CCC4)CC2)C3)nc(OC)n1 [Compound 635, 2-[2-(4-cyclobutylpiperazin-1-yl)-2-oxoethyl]-6-(2,6-dimethoxypyrimidin-4-yl)-1,2,3,4-tetrahydroisoquinoline]	Ki [3]: < 1000 nM
–	O=C(CN1CCc2nc(-c3cc(C(F)(F)F)ccc3Cl)sc2C1)N1CCN(C2CCC2)CC1 [Compound 374, 2-[2-chloro-5-(trifluoromethyl)phenyl]-5-[2-(4-cyclobutylpiperazin-1-yl)-2-oxoethyl]-4,5,6,7-tetrahydro[1,3]thiazolo [5,4-c]pyridine]	Ki [2]: < 1000 nM
< 1000	COc1ccc(-c2ccc3c(n2)CCN(CC(=O)N2CCN4C(C)CCC[C@H]4C2)C3)cc1 (stereo in doubt) [Compound 178, 2-(4-methoxyphenyl)-6-[2-(6-methyloctahydro-2H-pyrido[1,2-a]pyrazin-2-yl)-2-oxoethyl]-5,6,7,8-tetrahydro-1,6-naphthyridine]	–
–	CCOc1ccc(-c2ccc3c(c2)CCN(CC(=O)N2CCN(C4CCC4)CC2)C3)cc1 [Compound 528, 2-[2-(4-cyclobutylpiperazin-1-yl)-2-oxoethyl]-6-(4-ethoxyphenyl)-1,2,3,4-tetrahydroisoquinoline]	Ki [3]: < 1000 nM
< 1000	O=C(CN1CCc2cc(-c3cccnn3)ccc2C1)N1CCN(C2CCC2)CC1 [Compound 129, 2-[2-(4-cyclobutylpiperazin-1-yl)-2-oxoethyl]-6-pyridazin-3-yl-1,2,3,4-tetrahydroisoquinoline]	–
< 1000	COCCN(C)c1ccc2c(n1)CCN(CC(=O)N1CCN(C3CCC3)CC1)C2 [Compound 184, 6-[2-(4-cyclobutylpiperazin-1-yl)-2-oxoethyl]-N-(2-methoxyethyl)-N-methyl-5,6,7,8-tetrahydro-1,6-naphthyridin-2-amine]	–
< 1000	O=C(CN1CCc2nn(-c3ccc(C(F)(F)F)cc3)cc2C1)N1CCN(C2CCC2)CC1 [Compound 237, 5-[2-(4-cyclobutylpiperazin-1-yl)-2-oxoethyl]-2-[4-(trifluoromethyl)phenyl]-4,5,6,7-tetrahydro-2H-pyrazolo[4,3-c]pyridine]	–
< 1000	O=C(CN1CCc2nc(N3CCCCC3)ncc2C1)N1CCN(C2CCC2)CC1 [Compound 155, 6-[2-(4-cyclobutylpiperazin-1-yl)-2-oxoethyl]-2-piperidin-1-yl-5,6,7,8-tetrahydropyrido[4,3-d]pyrimidine]	–
–	O=C(CN1CCc2cc(-c3ccc4c(c3)OCCO4)ccc2C1)N1CCN(C2CCCC2)CC1 [Compound 381, 2-[2-(4-cyclopentylpiperazin-1-yl)-2-oxoethyl]-6-(2,3-dihydro-1,4-benzodioxin-6-yl)-1,2,3,4-tetrahydroisoquinoline]	Ki [2]: < 1000 nM
< 1000	CC1CN(C(=O)CN2CCc3nc(-c4cncnc4)sc3C2)CCN1C1CCC1 (stereo not shown) [Compound 111, 5-[2-(4-cyclobutyl-3-methylpiperazin-1-yl)-2-oxoethyl]-2-pyrimidin-5-yl-4,5,6,7-tetrahydro[1,3] thiazolo [5,4-c]pyridine]	–
–	O=C(CN1CCc2nc(NCC3CCCCC3)ccc2C1)N1CCN(C2CCC2)CC1 [Compound 659, 6-[2-(4-cyclobutylpiperazin-1-yl)-2-oxoethyl]-N-(cyclohexylmethyl)-5,6,7,8-tetrahydro-1,6-naphthyridin-2-amine]	Ki [3]: < 1000 nM
< 1000	CC(O)Cc1ccc2c(c1)CCN(CC(=O)N1CCN(C3CCC3)CC1)C2 (stereo not shown) [Compound 250, 1-{2-[2-(4-cyclobutylpiperazin-1-yl)-2-oxoethyl]-1,2,3,4-tetrahydroisoquinolin-6-yl}propan-2-ol]	–
< 1000	Cn1cc(-c2ccc3c(c2)CCN(CC(=O)N2CCN(C4CCC4)CC2)C3)cn1 [Compound 127, 2-[2-(4-cyclobutylpiperazin-1-yl)-2-oxoethyl]-6-(1-methyl-1H-pyrazol-4-yl)1,2,3,4-tetrahydroisoquinoline]	–
< 1000	CN(C)c1ncc2c(n1)CCN(CC(=O)N1CCN(C3CCC3)CC1)C2 [Compound 246, 6-[2-(4-cyclobutylpiperazin-1-yl)-2-oxoethyl]-N,N-dimethyl-5,6,7,8-tetrahydropyrido[4,3-d]pyrimidin-2-amine]	–
–	COc1ccc(-c2ccc3c(c2)CCN(CC(=O)N2CCN(C4CCCC4)CC2)C3)cc1C [Compound 541, 2-[2-(4-cyclopentylpiperazin-1-yl)-2-oxoethyl]-6-(4-methoxy-3-methylphenyl)-1,2,3,4-tetrahydroisoquinoline]	Ki [3]: < 1000 nM
< 1000	Cn1cc(-n2ncc3c2CCN(CC(=O)N2CCN(C4CCC4)CC2)C3)ccc1=O [Compound 263, 5-{5-[2-(4-cyclobutylpiperazin-1-yl)-2-oxoethyl]-4,5,6,7-tetrahydro-1H-pyrazolo[4,3-c]pyridin-1-yl}-1-methytpyridin-2(1H)-one]	–
< 1000	O=C(CN1CCc2nc(-c3ccncc3)ncc2C1)N1CCN(C2CCC2)CC1 [Compound 137, 6-[2-(4-cyclobutylpiperazin-1-yl)-2-oxoethyl]-2-pyridin-4-yl-5,6,7,8-tetrahydropyrido[4,3-d]pyrimidine]	–
